For 19 compounds, IC50 results are on record in patent US7576094B2, “Spiro derivatives as lipoxygenase inhibitors” (Eli Lilly and Company, priority 2004, dated 2009).

The target of experiment [1] is T1, porcine leukocyte 12/15-Lipoxygenase (Sus scrofa, UniProt P16469).
T1 sequence (P16469 1-663): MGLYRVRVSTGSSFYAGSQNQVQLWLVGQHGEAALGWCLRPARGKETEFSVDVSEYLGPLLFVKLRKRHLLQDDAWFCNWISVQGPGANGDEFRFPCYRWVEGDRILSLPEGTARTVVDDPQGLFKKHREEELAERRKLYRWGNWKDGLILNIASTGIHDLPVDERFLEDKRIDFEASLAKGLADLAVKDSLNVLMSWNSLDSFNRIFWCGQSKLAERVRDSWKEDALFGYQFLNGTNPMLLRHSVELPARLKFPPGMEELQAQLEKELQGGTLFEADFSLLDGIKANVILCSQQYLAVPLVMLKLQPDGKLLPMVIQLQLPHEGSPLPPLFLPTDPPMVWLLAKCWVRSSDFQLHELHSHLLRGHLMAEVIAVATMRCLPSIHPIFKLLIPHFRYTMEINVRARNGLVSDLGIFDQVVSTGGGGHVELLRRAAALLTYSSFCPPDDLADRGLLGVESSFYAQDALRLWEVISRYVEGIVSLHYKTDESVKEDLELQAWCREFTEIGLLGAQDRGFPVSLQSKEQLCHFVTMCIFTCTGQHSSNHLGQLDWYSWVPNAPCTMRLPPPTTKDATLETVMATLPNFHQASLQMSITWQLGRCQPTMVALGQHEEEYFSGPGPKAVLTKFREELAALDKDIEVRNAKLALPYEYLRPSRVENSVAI
As to the kind of experiment: 12/15-Lipoxygenase Enzyme Assay. Type of experiment: biochemical. The following applies: 70 μM arachidonic acid, 10 minute incubation at room temperature, FOX reagent, absorbance at 620 nm; read-out: inhibition of 12/15-Lipoxygenase with an IC50.

In experiment [2] the target is T2, human recombinant 5-Lipoxygenase (Homo sapiens, UniProt P09917).
T2 sequence (P09917 1-674): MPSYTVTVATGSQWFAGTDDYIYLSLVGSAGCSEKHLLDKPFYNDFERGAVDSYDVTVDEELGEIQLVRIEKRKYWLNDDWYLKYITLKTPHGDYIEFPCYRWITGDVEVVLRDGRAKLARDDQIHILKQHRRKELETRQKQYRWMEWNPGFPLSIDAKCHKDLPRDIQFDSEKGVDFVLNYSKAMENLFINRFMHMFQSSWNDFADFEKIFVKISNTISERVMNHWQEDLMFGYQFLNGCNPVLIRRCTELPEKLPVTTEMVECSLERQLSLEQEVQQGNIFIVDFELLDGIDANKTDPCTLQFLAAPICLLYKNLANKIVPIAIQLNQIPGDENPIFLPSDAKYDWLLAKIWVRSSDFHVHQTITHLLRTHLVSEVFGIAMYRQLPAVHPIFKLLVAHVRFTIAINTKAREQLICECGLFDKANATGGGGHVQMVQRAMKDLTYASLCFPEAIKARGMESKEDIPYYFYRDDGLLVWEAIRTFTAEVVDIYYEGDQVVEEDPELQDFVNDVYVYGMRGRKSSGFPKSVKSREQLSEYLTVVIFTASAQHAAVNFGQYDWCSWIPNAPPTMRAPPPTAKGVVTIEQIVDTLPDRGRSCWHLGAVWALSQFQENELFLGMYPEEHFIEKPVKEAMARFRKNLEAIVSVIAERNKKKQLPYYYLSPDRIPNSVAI
As to the kind of experiment: 5-Lipoxygenase Enzyme Assay. The following applies: 70 μM arachidonic acid, 10 minute incubation at room temperature, FOX reagent, absorbance at 620 nm; read-out: inhibition of 5-Lipoxygenase with an IC50. In kind it is biochemical. In short, it runs like this:
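Recombinant human 5-LOX in 50 mM Tris-HCl pH 7.4 was preincubated with compound, then 70 μM arachidonic acid was added for 10 min at room temperature. Hydroperoxide was read by FOX reagent (ferric xylenol orange, 1 h complex formation) as absorbance at 620 nm. Five concentrations in triplicate were tested, starting at 10 μM.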

Some results are limits rather than exact numbers.

For `Cc1cc2c(c(C)c1O)CC1(CCC1)CO2` [5,7-dimethylspiro[chroman-3,1′-cyclobutan]-6-ol], the figures for the IC50 in experiment [1] and in experiment [2] were below 5000 nM and below 300 nM, respectively.

On to `CCO/N=C/C1=Cc2c(cc(C)c(O)c2C)OC12CCC2` [6-hydroxy-5,7-dimethylspiro[chromene-2,1′-cyclobutane]-3-carbaldehyde O-ethyloxime], for which the results for the IC50 in experiment [1] and in experiment [2] were below 5000 nM and below 300 nM, respectively.

For `CONC1CC2(CCC2)Sc2c(C)c(C)c(O)c(C)c21` (centres unmarked) [4′-(methoxyamino)-5′,7′,8′-trimethyl-3′,4′-dihydrospiro[cyclobutane-1,2′-thiochromen]-6′-ol], the results for the IC50 in experiment [1] and in experiment [2] were below 5000 nM and below 300 nM, respectively.

On to `CO/N=C1\CC2(CCC2)Sc2c(C)c(C)c(O)c(C)c21` [6′-hydroxy-5′,7′,8′-trimethylspiro[cyclobutane-1,2′-thiochroman]-4′(3′H)-one O-methyloxime], for which the IC50 in experiment [1] was below 5000 nM; in experiment [2] it was below 300 nM.

For `CCONCC1=Cc2c(cc(C)c(O)c2C)OC12CCC2` [3-[(ethoxyamino)methyl]-5,7-dimethylspiro[chromene-2,1′-cyclobutan]-6-ol], the IC50 in experiment [1] is below 5000 nM; in experiment [2] it was below 300 nM.

On to `COC(C)C1=Cc2c(C)c(O)c(C)c(C)c2OC12CCC2` (centres unmarked) [3-(1-methoxyethyl)-5,7,8-trimethylspiro[chromene-2,1′-cyclobutan]-6-ol], for which the IC50 in experiment [1] is below 5000 nM; in experiment [2] it was below 300 nM.

Take `CONC1CC2(CCC2)Sc2cc(C)c(O)c(C)c21` (centres unmarked) [4′-(methoxyamino)-5′,7′-dimethyl-3′,4′-dihydrospiro[cyclobutane-1,2′-thiochromen]-6′-ol]: the IC50 was below 5000 nM in experiment [1] and below 300 nM in experiment [2].

With `CCONC1CC2(CCC2)Sc2cc(C)c(O)c(C)c21` (centres unmarked) [4′-(ethoxyamino)-5′,7′-dimethyl-3′,4′-dihydrospiro[cyclobutane-1,2′-thiochromen]-6′-ol], the IC50 in experiment [1] is below 5000 nM; in experiment [2] it was below 300 nM.

With `CCONC1CC2(CCC2)Sc2c(C)c(C)c(O)c(C)c21` (centres unmarked) [4′-(ethoxyamino)-5′,7′,8′-trimethyl-3′,4′-dihydrospiro[cyclobutane-1,2′-thiochromen]-6′-ol], the IC50 is below 5000 nM in experiment [1] and below 300 nM in experiment [2].

Take `CC(C)(C)c1cc2c(cc1O)CCC1(CCC1)O2` [7-tert-butyl-3,4-dihydrospiro[chromene-2,1′-cyclobutan]-6-ol]: the values for the IC50 in experiment [1] and in experiment [2] were below 5000 nM and below 300 nM, respectively.

With `Cc1cc2c(c(C)c1O)C=CC1(CCC1)O2` [5,7-dimethylspiro[chromene-2,1′-cyclobutan]-6-ol], the IC50 in experiment [1] is below 5000 nM; in experiment [2], below 300 nM.

Regarding `Cc1c(O)cc2c(c1C)OC1(CCC1)CC2` [7,8-dimethyl-3,4-dihydrospiro[chromene-2,1′-cyclobutan]-6-ol], the IC50 is below 5000 nM in experiment [1] and below 300 nM in experiment [2].

Regarding `Cc1c(C)c2c(c(C)c1O)C1(CCC1)CCS2` [5′,7′,8′-trimethyl-2′,3′-dihydrospiro[cyclobutane, 1,4′-thiochromen]-6′-ol], the IC50 in experiment [1] is below 5000 nM; in experiment [2], below 300 nM.

In the case of `CCc1cc2c(c(CC)c1O)CC(CSCC(=O)OC)C1(CCC1)O2` (centres unmarked) [methyl 2-((5,7-diethyl-6-hydroxyspiro[chroman-2,1′-cyclobutane]-3-yl)methylthio)acetate], the results for the IC50 in experiment [1] and in experiment [2] were below 5000 nM and below 300 nM, respectively.

For the compound `Cc1c(O)c(C(C)(C)C)cc2c1CCC1(CCC1)O2` [7-tert-butyl-5-methyl-3,4-dihydrospiro[chromene-2,1′-cyclobutan]-6-ol], the IC50 is below 5000 nM in experiment [1] and below 300 nM in experiment [2].

Turning to `Cc1c(C)c2c(c(C)c1O)CCC1(CC1)O2` [5,7,8-trimethyl-3,4-dihydrospiro[chromene-2,1′-cyclopropan]-6-ol], the figures for the IC50 in experiment [1] and in experiment [2] were below 5000 nM and below 300 nM, respectively.

For the compound `Cc1cc2c(c(C)c1O)CCC1(CCC1)O2` [5,7-dimethyl-3,4-dihydrospiro[chromene-2,1′-cyclobutan]-6-ol], the results for the IC50 in experiment [1] and in experiment [2] were below 5000 nM and below 300 nM, respectively.

For `Cc1c(C)c2c(c(C)c1O)C1(CCC1)CC(C)(C)S2` [2′,2′,5′,7′,8′-pentamethyl-2′,3′-dihydrospiro[cyclobutane-1,4′-thiochromen]-6′-ol], the IC50 was below 5000 nM in experiment [1] and below 300 nM in experiment [2].

For `Cc1c(C)c2c(c(Cl)c1O)CCC1(CCC1)O2` [5-chloro-7,8-dimethyl-3,4-dihydrospiro[chromene-2,1′-cyclobutan]-6-ol], the figures for the IC50 in experiment [1] and in experiment [2] were below 5000 nM and below 300 nM, respectively.
